{"source": "patent US12497394B2", "about": "“Fused-cyclic pyrazolone formamide compound and preparation method therefor, pharmaceutical composition and use thereof” (SHANGHAI INSTITUTE OF MATERIA MEDICA, CHINESE ACADEMY OF …, priority 2018, dated 2025)", "key": {"DDR1": {"biological_target": "DDR1 (Homo sapiens, UniProt Q08345)", "sequence (Q08345 19-913, species assumed)": "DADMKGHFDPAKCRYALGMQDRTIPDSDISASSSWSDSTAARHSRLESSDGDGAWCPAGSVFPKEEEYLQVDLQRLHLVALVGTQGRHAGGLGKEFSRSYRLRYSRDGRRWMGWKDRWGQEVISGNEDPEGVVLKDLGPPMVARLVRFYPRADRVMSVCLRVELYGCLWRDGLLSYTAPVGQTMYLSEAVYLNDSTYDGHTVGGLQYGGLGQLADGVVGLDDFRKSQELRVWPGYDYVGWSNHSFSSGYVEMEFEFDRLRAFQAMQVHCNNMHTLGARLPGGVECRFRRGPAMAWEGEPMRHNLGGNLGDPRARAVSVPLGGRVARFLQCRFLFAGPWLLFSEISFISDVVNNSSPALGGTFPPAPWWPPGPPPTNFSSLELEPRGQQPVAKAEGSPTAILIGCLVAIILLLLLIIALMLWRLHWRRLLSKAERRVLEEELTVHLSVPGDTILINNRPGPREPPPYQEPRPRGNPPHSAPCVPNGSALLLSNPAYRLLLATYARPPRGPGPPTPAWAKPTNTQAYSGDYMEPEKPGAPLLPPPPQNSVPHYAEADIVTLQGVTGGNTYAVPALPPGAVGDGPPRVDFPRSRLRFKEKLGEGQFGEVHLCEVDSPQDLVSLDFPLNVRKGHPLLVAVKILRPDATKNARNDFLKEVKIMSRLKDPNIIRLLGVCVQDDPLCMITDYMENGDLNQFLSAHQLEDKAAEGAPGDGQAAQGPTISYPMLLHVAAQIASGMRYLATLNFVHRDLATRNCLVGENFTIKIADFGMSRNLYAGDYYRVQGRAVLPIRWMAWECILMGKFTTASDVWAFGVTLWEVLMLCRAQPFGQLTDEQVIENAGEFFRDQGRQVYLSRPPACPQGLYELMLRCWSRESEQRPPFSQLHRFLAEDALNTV", "experiment": "Kinase profile screen: DDR1", "assay_type": "biochemical", "details": "50 nM", "description": "(§1) Experimental Example 2: Study on the Selectivity of the Kinase Profile of the Compound Due to compound's potent inhibitory activity against AXL, we selected one of the compounds, DC621044, to screen 369 kinase profiles in order to investigate the compound's selectivity to the kinase profile."}, "EPHA6": {"biological_target": "EPHA6 (Homo sapiens, UniProt Q9UF33)", "experiment": "Kinase profile screen: EPHA6", "assay_type": "biochemical", "details": "50 nM", "description": "as §1"}, "[1]": {"biological_target": "T1, receptor tyrosine kinase AXL (Homo sapiens, UniProt P30530)", "T1 construct": "50 μL of AXL kinase domain recombinant protein diluted in reaction buffer was added to start the reaction; made in house; host or cells: insect cells (baculovirus expression system)", "T1 sequence (P30530 536-807 limits assumed)": "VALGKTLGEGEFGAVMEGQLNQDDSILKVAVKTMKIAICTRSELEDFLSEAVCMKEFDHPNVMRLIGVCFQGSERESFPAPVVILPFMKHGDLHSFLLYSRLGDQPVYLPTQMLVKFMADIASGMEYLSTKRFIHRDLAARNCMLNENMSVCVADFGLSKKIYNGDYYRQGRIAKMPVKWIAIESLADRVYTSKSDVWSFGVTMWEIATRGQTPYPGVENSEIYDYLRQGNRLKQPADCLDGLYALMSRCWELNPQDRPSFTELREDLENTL", "experiment": "Enzyme activity of receptor tyrosine kinase AXL (ELISA)", "assay_type": "biochemical", "method_in_brief": "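AXL kinase domain recombinant protein reacted with ATP and compound (1% DMSO) in 50 mM HEPES pH 7.4, 50 mM MgCl2, 0.5 mM MnCl2, 0.2 mM Na3VO4, 1 mM DTT, 1 hour at 37° C. Phosphorylation detected by ELISA with HRP anti-mouse secondary, read at 490 nm; IC50 by four-parameter regression.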"}, "RON/MSTIR": {"biological_target": "RON/MSTIR (Homo sapiens, UniProt Q04912)", "sequence (Q04912 25-1400)": "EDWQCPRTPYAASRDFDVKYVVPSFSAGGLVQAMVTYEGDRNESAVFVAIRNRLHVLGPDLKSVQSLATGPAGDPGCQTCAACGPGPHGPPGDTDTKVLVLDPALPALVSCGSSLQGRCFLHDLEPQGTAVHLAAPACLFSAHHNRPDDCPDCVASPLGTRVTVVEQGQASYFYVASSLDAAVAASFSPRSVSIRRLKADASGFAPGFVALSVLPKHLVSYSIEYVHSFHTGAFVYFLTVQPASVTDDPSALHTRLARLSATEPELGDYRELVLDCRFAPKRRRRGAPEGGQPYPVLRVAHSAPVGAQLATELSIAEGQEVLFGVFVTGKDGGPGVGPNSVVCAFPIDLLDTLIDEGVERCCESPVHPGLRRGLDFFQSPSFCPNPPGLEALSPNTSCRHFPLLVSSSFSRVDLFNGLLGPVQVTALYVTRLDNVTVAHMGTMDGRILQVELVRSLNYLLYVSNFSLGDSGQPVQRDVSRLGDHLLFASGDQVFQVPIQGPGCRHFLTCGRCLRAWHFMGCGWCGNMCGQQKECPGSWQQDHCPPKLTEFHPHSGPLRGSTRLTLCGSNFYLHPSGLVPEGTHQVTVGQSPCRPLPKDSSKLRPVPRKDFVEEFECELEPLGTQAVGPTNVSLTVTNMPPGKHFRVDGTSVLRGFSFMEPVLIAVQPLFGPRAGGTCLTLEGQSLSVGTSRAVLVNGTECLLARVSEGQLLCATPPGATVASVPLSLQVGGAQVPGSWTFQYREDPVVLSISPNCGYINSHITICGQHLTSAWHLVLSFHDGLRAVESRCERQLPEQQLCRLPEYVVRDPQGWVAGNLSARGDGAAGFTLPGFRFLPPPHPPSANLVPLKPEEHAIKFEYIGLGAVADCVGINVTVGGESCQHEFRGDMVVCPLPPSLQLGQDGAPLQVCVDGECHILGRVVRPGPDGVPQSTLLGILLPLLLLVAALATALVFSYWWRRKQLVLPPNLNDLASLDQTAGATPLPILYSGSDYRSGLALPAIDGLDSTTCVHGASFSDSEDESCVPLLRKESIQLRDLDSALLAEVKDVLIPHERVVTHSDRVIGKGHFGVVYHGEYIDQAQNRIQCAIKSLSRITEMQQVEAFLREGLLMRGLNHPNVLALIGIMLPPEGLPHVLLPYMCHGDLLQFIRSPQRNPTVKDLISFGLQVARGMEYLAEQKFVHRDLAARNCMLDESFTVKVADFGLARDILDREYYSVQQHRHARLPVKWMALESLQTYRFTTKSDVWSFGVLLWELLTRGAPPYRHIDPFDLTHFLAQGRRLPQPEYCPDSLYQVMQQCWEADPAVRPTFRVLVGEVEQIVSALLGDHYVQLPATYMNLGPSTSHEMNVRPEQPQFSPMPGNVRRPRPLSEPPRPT", "experiment": "Kinase profile screen: RON/MSTIR", "assay_type": "biochemical", "details": "50 nM", "description": "as §1"}, "BLK": {"biological_target": "BLK (Homo sapiens, UniProt P51451)", "experiment": "Kinase profile screen: BLK", "assay_type": "biochemical", "details": "50 nM", "description": "as §1"}, "FRK/PTK5": {"biological_target": "FRK/PTK5 (Homo sapiens, UniProt P42685)", "experiment": "Kinase profile screen: FRK/PTK5", "assay_type": "biochemical", "details": "50 nM", "description": "as §1"}, "FYN": {"biological_target": "FYN (Homo sapiens, UniProt P06241)", "sequence (P06241 whole entry, species assumed)": "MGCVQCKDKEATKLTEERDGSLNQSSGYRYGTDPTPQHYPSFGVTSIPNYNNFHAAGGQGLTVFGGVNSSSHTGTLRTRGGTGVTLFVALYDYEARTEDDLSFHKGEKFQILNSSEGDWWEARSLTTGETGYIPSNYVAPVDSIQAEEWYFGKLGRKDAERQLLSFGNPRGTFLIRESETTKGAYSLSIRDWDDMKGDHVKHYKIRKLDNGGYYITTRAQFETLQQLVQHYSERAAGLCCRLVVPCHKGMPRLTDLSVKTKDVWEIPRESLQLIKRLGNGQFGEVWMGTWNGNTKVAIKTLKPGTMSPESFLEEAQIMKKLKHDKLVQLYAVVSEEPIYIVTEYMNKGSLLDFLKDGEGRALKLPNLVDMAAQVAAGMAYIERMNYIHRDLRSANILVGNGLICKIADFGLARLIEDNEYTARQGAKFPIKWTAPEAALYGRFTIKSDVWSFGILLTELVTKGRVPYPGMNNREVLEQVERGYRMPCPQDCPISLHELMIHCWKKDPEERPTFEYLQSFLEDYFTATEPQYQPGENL", "experiment": "Kinase profile screen: FYN", "assay_type": "biochemical", "details": "50 nM", "description": "as §1"}, "HIPK4": {"biological_target": "HIPK4 (Homo sapiens, UniProt Q8NE63)", "experiment": "Kinase profile screen: HIPK4", "assay_type": "biochemical", "details": "50 nM", "description": "as §1"}, "MER": {"biological_target": "MER (Homo sapiens, UniProt Q12866)", "experiment": "Kinase profile screen: MER", "assay_type": "biochemical", "details": "50 nM", "description": "as §1"}, "FGR": {"biological_target": "FGR (Homo sapiens, UniProt P09769)", "experiment": "Kinase profile screen: FGR", "assay_type": "biochemical", "details": "50 nM", "description": "as §1"}, "ASK1/MAP3K5": {"biological_target": "ASK1/MAP3K5 (Homo sapiens, UniProt Q99683)", "sequence (Q99683 whole entry)": "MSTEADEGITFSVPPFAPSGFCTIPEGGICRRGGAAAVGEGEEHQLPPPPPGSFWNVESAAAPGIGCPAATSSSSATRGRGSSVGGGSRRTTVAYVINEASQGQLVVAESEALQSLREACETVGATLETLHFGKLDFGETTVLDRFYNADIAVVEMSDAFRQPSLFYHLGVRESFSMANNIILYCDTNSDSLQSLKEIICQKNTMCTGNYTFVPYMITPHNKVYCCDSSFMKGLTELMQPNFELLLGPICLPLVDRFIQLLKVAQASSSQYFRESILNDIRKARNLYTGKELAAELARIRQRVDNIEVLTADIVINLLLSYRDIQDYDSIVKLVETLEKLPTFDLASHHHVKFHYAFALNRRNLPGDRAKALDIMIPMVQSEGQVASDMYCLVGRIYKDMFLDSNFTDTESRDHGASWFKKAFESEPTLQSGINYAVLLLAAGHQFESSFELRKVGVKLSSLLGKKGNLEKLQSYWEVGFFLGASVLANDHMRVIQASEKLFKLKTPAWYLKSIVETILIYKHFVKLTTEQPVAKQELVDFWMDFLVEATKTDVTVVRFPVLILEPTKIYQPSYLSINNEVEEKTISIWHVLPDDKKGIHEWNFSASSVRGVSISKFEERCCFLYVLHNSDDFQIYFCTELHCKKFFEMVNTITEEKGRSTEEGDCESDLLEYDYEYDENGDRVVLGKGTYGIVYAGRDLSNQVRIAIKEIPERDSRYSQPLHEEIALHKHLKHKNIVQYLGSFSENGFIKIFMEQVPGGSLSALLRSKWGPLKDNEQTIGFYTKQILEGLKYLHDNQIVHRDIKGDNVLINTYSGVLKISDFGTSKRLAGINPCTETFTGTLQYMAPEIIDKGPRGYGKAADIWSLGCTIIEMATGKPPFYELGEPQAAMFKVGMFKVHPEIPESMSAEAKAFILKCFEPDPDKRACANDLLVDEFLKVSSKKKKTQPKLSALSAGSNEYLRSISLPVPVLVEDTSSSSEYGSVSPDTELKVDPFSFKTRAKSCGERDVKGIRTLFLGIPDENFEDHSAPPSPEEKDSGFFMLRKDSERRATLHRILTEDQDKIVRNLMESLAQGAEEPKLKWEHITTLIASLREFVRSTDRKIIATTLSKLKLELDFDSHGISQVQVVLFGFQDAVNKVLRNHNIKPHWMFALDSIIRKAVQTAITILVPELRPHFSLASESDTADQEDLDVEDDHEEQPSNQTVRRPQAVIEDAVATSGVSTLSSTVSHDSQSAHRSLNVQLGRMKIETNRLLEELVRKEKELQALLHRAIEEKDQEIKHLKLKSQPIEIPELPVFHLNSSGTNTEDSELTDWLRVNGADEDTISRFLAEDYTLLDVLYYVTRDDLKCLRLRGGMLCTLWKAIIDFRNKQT", "experiment": "Kinase profile screen: ASK1/MAP3K5", "assay_type": "biochemical", "details": "50 nM", "description": "as §1"}, "AXL": {"biological_target": "AXL (Homo sapiens, UniProt P30530)", "sequence (P30530 26-894)": "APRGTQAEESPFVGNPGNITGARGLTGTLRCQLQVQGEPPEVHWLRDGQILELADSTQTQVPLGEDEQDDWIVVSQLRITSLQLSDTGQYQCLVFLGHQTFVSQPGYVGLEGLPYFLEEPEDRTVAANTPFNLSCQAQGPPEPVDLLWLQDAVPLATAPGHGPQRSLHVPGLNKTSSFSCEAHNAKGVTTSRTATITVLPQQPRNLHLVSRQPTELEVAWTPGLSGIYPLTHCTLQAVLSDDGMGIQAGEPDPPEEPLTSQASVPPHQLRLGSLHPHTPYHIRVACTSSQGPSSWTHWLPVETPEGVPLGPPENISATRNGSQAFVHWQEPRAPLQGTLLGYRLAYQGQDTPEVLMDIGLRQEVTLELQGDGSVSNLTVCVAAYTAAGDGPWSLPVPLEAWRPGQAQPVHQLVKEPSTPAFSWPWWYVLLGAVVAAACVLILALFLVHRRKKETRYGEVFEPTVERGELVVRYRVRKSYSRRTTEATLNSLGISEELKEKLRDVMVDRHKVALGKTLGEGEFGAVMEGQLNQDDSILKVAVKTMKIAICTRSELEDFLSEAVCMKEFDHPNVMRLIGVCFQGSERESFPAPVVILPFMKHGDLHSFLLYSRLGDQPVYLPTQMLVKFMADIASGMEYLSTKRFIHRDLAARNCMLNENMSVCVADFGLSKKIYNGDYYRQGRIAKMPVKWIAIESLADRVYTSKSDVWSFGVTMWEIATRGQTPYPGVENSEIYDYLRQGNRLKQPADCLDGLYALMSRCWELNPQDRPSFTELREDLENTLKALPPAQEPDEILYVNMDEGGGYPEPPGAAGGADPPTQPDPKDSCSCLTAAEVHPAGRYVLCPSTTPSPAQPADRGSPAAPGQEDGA", "experiment": "Kinase profile screen: AXL", "assay_type": "biochemical", "details": "50 nM", "description": "as §1"}, "TRKA": {"biological_target": "TRKA (Homo sapiens, UniProt P04629)", "experiment": "Kinase profile screen: TRKA", "assay_type": "biochemical", "details": "50 nM", "description": "as §1"}, "MLK2/MAP3K10": {"biological_target": "MLK2/MAP3K10 (Homo sapiens, UniProt Q02779)", "experiment": "Kinase profile screen: MLK2/MAP3K10", "assay_type": "biochemical", "details": "50 nM", "description": "as §1"}, "FLT3": {"biological_target": "FLT3 (Homo sapiens, UniProt P36888)", "experiment": "Kinase profile screen: FLT3", "assay_type": "biochemical", "details": "50 nM", "description": "as §1"}, "TRKB": {"biological_target": "TRKB (Homo sapiens, UniProt Q16620)", "experiment": "Kinase profile screen: TRKB", "assay_type": "biochemical", "details": "50 nM", "description": "as §1"}, "BaF3/TEL-AXL cells": {"tested_on": "BaF3/TEL-AXL cells", "experiment": "Proliferation of BaF3/TEL-AXL cells", "assay_type": "cell-based", "description": "Experimental Example 4: Effect of the Compound on the Proliferation Effect of BaF3/TEL-AXL Cells\nBased on the above-mentioned enzyme activity research results, we further explored the effect of the compound on cell proliferation mediated by receptor tyrosine kinase AXL."}, "BRK": {"biological_target": "BRK (Homo sapiens, UniProt Q13882)", "experiment": "Kinase profile screen: BRK", "assay_type": "biochemical", "details": "50 nM", "description": "as §1"}, "IRR/INSRR": {"biological_target": "IRR/INSRR (Homo sapiens, UniProt P14616)", "experiment": "Kinase profile screen: IRR/INSRR", "assay_type": "biochemical", "details": "50 nM", "description": "as §1"}}, "note": "Where two headings read alike, the source gives them in different places."}
{"smiles": "COCCOc1cc2ncnc(Oc3ccc(NC(=O)c4c5n(n(-c6ccc(F)cc6)c4=O)CCCC5)cc3F)c2cc1OCCOC", "note": "[DC621044, N-(4-((6,7-bis(2-methoxyethoxy)quinazolin-4-yl)oxy)-3-fluorophenyl)-1-(4-fluorophenyl)-2-oxo-1,2,4,5,6,7-hexahydropyrazolo[1,5-a]pyridine-3-formamide]", "values": [{"measurement": "inhibition at 0.05 µM", "setting": "DDR1; the first time", "value": 64.1, "unit": "%"}, {"measurement": "inhibition at 0.05 µM", "setting": "DDR1; the second time", "value": 64.2, "unit": "%"}, {"measurement": "inhibition at 0.05 µM", "setting": "EPHA6; the first time", "value": 57.3, "unit": "%"}, {"measurement": "inhibition at 0.05 µM", "setting": "EPHA6; the second time", "value": 57.8, "unit": "%"}, {"measurement": "IC50", "setting": "[1]", "value": "7.6 ± 0.3", "unit": "nM"}, {"measurement": "inhibition at 0.001 µM", "setting": "[1]; 1 nM, read-out: AXL activity Inhibitory rate(%)", "value": 20.7, "unit": "%"}, {"measurement": "inhibition at 0.01 µM", "setting": "[1]; 10 nM, read-out: AXL activity Inhibitory rate(%)", "value": 61.2, "unit": "%"}, {"measurement": "inhibition at 0.1 µM", "setting": "[1]; 100 nM, read-out: AXL activity Inhibitory rate(%)", "value": 80.7, "unit": "%"}, {"measurement": "inhibition at 0.05 µM", "setting": "RON/MSTIR; the first time", "value": 25.9, "unit": "%"}, {"measurement": "inhibition at 0.05 µM", "setting": "RON/MSTIR; the second time", "value": 27.2, "unit": "%"}, {"measurement": "inhibition at 0.05 µM", "setting": "BLK; the first time", "value": 29.5, "unit": "%"}, {"measurement": "inhibition at 0.05 µM", "setting": "BLK; the second time", "value": 29.9, "unit": "%"}, {"measurement": "inhibition at 0.05 µM", "setting": "FRK/PTK5; the first time", "value": 17.1, "unit": "%"}, {"measurement": "inhibition at 0.05 µM", "setting": "FRK/PTK5; the second time", "value": 17.7, "unit": "%"}, {"measurement": "inhibition at 0.05 µM", "setting": "FYN; the first time", "value": 22.4, "unit": "%"}, {"measurement": "inhibition at 0.05 µM", "setting": "FYN; the second time", "value": 27.7, "unit": "%"}, {"measurement": "inhibition at 0.05 µM", "setting": "HIPK4; the first time", "value": 77.2, "unit": "%"}, {"measurement": "inhibition at 0.05 µM", "setting": "HIPK4; the second time", "value": 77.2, "unit": "%"}, {"measurement": "inhibition at 0.05 µM", "setting": "MER; the first time", "value": 99.4, "unit": "%"}, {"measurement": "inhibition at 0.05 µM", "setting": "MER; the second time", "value": 99.5, "unit": "%"}, {"measurement": "inhibition at 0.05 µM", "setting": "FGR; the first time", "value": 41.2, "unit": "%"}, {"measurement": "inhibition at 0.05 µM", "setting": "FGR; the second time", "value": 41.2, "unit": "%"}, {"measurement": "inhibition at 0.05 µM", "setting": "ASK1/MAP3K5; the first time", "value": 22.5, "unit": "%"}, {"measurement": "inhibition at 0.05 µM", "setting": "ASK1/MAP3K5; the second time", "value": 23.5, "unit": "%"}, {"measurement": "inhibition at 0.05 µM", "setting": "AXL; the first time", "value": 94.6, "unit": "%"}, {"measurement": "inhibition at 0.05 µM", "setting": "AXL; the second time", "value": 95.2, "unit": "%"}, {"measurement": "inhibition at 0.05 µM", "setting": "TRKA; the first time", "value": 59.2, "unit": "%"}, {"measurement": "inhibition at 0.05 µM", "setting": "TRKA; the second time", "value": 60.3, "unit": "%"}, {"measurement": "inhibition at 0.05 µM", "setting": "MLK2/MAP3K10; the first time", "value": 22.4, "unit": "%"}, {"measurement": "inhibition at 0.05 µM", "setting": "MLK2/MAP3K10; the second time", "value": 23.9, "unit": "%"}, {"measurement": "inhibition at 0.05 µM", "setting": "FLT3; the first time", "value": 28, "unit": "%"}, {"measurement": "inhibition at 0.05 µM", "setting": "FLT3; the second time", "value": 29.3, "unit": "%"}, {"measurement": "inhibition at 0.05 µM", "setting": "TRKB; the first time", "value": 52.1, "unit": "%"}, {"measurement": "inhibition at 0.05 µM", "setting": "TRKB; the second time", "value": 52.2, "unit": "%"}, {"measurement": "BaF3/TEL-AXL proliferation Inhibitory rate (%)", "setting": "BaF3/TEL-AXL cells; 1 nM, two values per compound, 0.001 µM", "value": 64.2, "unit": "%"}, {"measurement": "BaF3/TEL-AXL proliferation Inhibitory rate (%)", "setting": "BaF3/TEL-AXL cells; 10 nM, two values per compound, 0.01 µM", "value": 75.9, "unit": "%"}, {"measurement": "BaF3/TEL-AXL proliferation Inhibitory rate (%)", "setting": "BaF3/TEL-AXL cells; 100 nM, two values per compound, 0.1 µM", "value": 88.2, "unit": "%"}, {"measurement": "inhibition at 0.001 µM", "setting": "BaF3/TEL-AXL cells; BaF3/TEL-AXL, 1 nM, two values per compound, read-out: BaF3/TEL-AXL proliferation Inhibitory rate (%)", "value": 78.9, "unit": "%"}, {"measurement": "inhibition at 0.01 µM", "setting": "BaF3/TEL-AXL cells; BaF3/TEL-AXL, 10 nM, two values per compound, read-out: BaF3/TEL-AXL proliferation Inhibitory rate (%)", "value": 79.8, "unit": "%"}, {"measurement": "inhibition at 0.1 µM", "setting": "BaF3/TEL-AXL cells; BaF3/TEL-AXL, 100 nM, two values per compound, read-out: BaF3/TEL-AXL proliferation Inhibitory rate (%)", "value": 85.9, "unit": "%"}, {"measurement": "inhibition at 0.001 µM", "setting": "BaF3/TEL-AXL cells; BaF3/TEL-AXL, concentration of 1 nM, read-out: inhibited the proliferation of BaF3/TEL-AXL cells", "value": "> 70", "unit": "%"}, {"measurement": "inhibition at 0.05 µM", "setting": "BRK; the first time", "value": 18.9, "unit": "%"}, {"measurement": "inhibition at 0.05 µM", "setting": "BRK; the second time", "value": 19.4, "unit": "%"}, {"measurement": "inhibition at 0.05 µM", "setting": "IRR/INSRR; the first time", "value": 25.8, "unit": "%"}, {"measurement": "inhibition at 0.05 µM", "setting": "IRR/INSRR; the second time", "value": 28.3, "unit": "%"}]}
